# US20060058345A1, “Use of papaverine-like vasodilator and pharmaceutical composition” (Ursapharm Arzneimittel GmbH & Co KG, priority 2002, published 2006)
# “And” between values parts separate entries of the source, which are not always exact repeats. Identical values can stand only once. Counter-ions that a name gives are not always drawn.
# What was measured:
# [1] = Absorption of 14C-marked moxaverine into eye tissues and plasma after ocular or systemic application; details: for Amount of active substance in the moist tissue: single experiments
# albino rabbits = experiment: Compatibility study, topical application to the rabbit eye over 28 days (EU Directive 92/69/EEC, method B.5); assay type: in vivo; details: 50 μl aqueous solution pH 3.0-3.5, right eye, twelve albino rabbits
# Method: In a compatibility study 50 μl of a moxaverine hydrochloride-bearing aqueous solution with a pH of 3.0-3.5 was applied to the right eye of twelve albino rabbits in each case over a period of 28 days with four applications per working day and two applications per weekend day in a single dose. The left eye served in each case as a control. Evaluation of the eye reaction was effected in accordance with the Table of EU Directive 92/69/EEC, Appendix, method B.5.
# [2] = ocular application, after 30 minutes, Aqueous humor
# [3] = ocular application, after 30 minutes, Lens
# [4] = ocular application, after 30 minutes, Plasma
# [5] = ocular application, after 120 minutes, Retina
# [6] = systemic application (intravenous), after 30 minutes, Aqueous humor
# [7] = systemic application (intravenous), after 30 minutes, Iris/ciliary process
# [8] = systemic application (intravenous), after 30 minutes, Lens
# [9] = systemic application (intravenous), after 30 minutes, Plasma
# [10] = systemic application (intravenous), after 30 minutes, Retina
# [11] = systemic application (intravenous), after 30 minutes, Vitreous humor
# [12] = systemic application (intravenous), after 120 minutes, Aqueous humor
# [13] = systemic application (intravenous), after 120 minutes, Conjunctiva
# [14] = systemic application (intravenous), after 120 minutes, Iris/ciliary process
# [15] = systemic application (intravenous), after 120 minutes, Lens
# [16] = systemic application (intravenous), after 120 minutes, Plasma
# [17] = systemic application (intravenous), after 120 minutes, Retina
# [18] = systemic application (intravenous), after 120 minutes, Sclera
# [19] = systemic application (intravenous), after 120 minutes, Vitreous humor
structure (smiles),measurement,setting,value
CCc1cc2cc(OC)c(OC)cc2c(Cc2ccccc2)n1 [moxaverine],Factor by which concentration in the iris and the ciliary process is less with systemic than with topical application,[1]; 30 minutes,~6
same,Factor by which concentration in the iris and the ciliary process is less with systemic than with topical application,[1]; 120 minutes,~18
same,"Concentration in the retina, systemic compared to topical administration",[1]; after 30 minutes,slightly above
same,Concentration in the conjunctiva and the cornea after 120 minutes compared to 30 minutes,[1]; ocular application,decreased
same,Concentration in the iris and the ciliary process after 120 minutes compared to 30 minutes,[1]; ocular application,almost doubled
same,Increase of concentration in the retina after 120 minutes compared to 30 minutes,[1]; ocular application,about 50%
same,"Amount of active substance in the moist tissue, Mean value",[1]; [2],1.9529E−07 mg of moxaverine/g of moist tissue
same,Amount of active substance in the moist tissue,[1]; [2],1.4923E−07 mg of moxaverine/g of moist tissue and 2.6321E−07 mg of moxaverine/g of moist tissue and 1.7533E−07 mg of moxaverine/g of moist tissue
same,"Amount of active substance in the moist tissue, Mean value","[1]; ocular application, after 30 minutes, Conjunctiva",6.1602E−04 mg of moxaverine/g of moist tissue
same,"Amount of active substance in the moist tissue, Mean value","[1]; ocular application, after 30 minutes, Cornea",1.8538E−03 mg of moxaverine/g of moist tissue
same,"Amount of active substance in the moist tissue, Mean value","[1]; ocular application, after 30 minutes, Iris/ciliary process",1.5028E−03 mg of moxaverine/g of moist tissue
same,"Amount of active substance in the moist tissue, Mean value",[1]; [3],4.9582E−05 mg of moxaverine/g of moist tissue
same,Amount of active substance in the moist tissue,[1]; [3],4.6171E−05 mg of moxaverine/g of moist tissue and 6.1860E−05 mg of moxaverine/g of moist tissue and 4.0715E−05 mg of moxaverine/g of moist tissue
same,"Amount of active substance in the moist tissue, Mean value",[1]; [4],2.0234E−05 mg of moxaverine/g of moist tissue
same,Amount of active substance in the moist tissue,[1]; [4],2.3741E−05 mg of moxaverine/g of moist tissue and 1.8259E−05 mg of moxaverine/g of moist tissue and 1.8702E−05 mg of moxaverine/g of moist tissue
same,"Amount of active substance in the moist tissue, Mean value","[1]; ocular application, after 30 minutes, Retina",1.0031E−04 mg of moxaverine/g of moist tissue
same,"Amount of active substance in the moist tissue, Mean value","[1]; ocular application, after 30 minutes, Sclera",1.0012E−04 mg of moxaverine/g of moist tissue
same,"Amount of active substance in the moist tissue, Mean value","[1]; ocular application, after 30 minutes, Vitreous humor",1.1544E−07 mg of moxaverine/g of moist tissue
same,"Amount of active substance in the moist tissue, Mean value","[1]; ocular application, after 120 minutes, Aqueous humor",9.3417E−08 mg of moxaverine/g of moist tissue
same,"Amount of active substance in the moist tissue, Mean value","[1]; ocular application, after 120 minutes, Conjunctiva",3.7275E−04 mg of moxaverine/g of moist tissue
same,"Amount of active substance in the moist tissue, Mean value","[1]; ocular application, after 120 minutes, Cornea",1.1057E−03 mg of moxaverine/g of moist tissue
same,"Amount of active substance in the moist tissue, Mean value","[1]; ocular application, after 120 minutes, Iris/ciliary process",2.9849E−03 mg of moxaverine/g of moist tissue
same,"Amount of active substance in the moist tissue, Mean value","[1]; ocular application, after 120 minutes, Lens",5.6780E−05 mg of moxaverine/g of moist tissue
same,"Amount of active substance in the moist tissue, Mean value","[1]; ocular application, after 120 minutes, Plasma",1.2891E−05 mg of moxaverine/g of moist tissue
same,"Amount of active substance in the moist tissue, Mean value",[1]; [5],1.4397E−04 mg of moxaverine/g of moist tissue
same,Amount of active substance in the moist tissue,[1]; [5],1.8933E−04 mg of moxaverine/g of moist tissue and 1.4755E−04 mg of moxaverine/g of moist tissue and 9.5039E−05 mg of moxaverine/g of moist tissue
same,"Amount of active substance in the moist tissue, Mean value","[1]; ocular application, after 120 minutes, Sclera",1.0330E−04 mg of moxaverine/g of moist tissue
same,"Amount of active substance in the moist tissue, Mean value","[1]; ocular application, after 120 minutes, Vitreous humor",9.6118E−09 mg of moxaverine/g of moist tissue
same,"Absorption and biological availability in the eye, topical compared to systemic application",[1]; same application amount,better absorbed by the eye with topical application and exhibits a markedly longer biological availability in the eye
same,Concentration in the iris and the ciliary process at 120 minutes as share of the concentration after 30 minutes,[1]; systemic application,about 63%
same,Factor of decrease of concentration in the retina from 30 to 120 minutes,[1]; systemic application,1.6
same,"Amount of active substance in the moist tissue, Mean value",[1]; [6],2.2632E−09 mg of moxaverine/g of moist tissue
same,Amount of active substance in the moist tissue,[1]; [6],2.0291E−09 mg of moxaverine/g of moist tissue and 2.4973E−09 mg of moxaverine/g of moist tissue
same,"Amount of active substance in the moist tissue, Mean value","[1]; systemic application (intravenous), after 30 minutes, Conjunctiva",2.4278E−05 mg of moxaverine/g of moist tissue
same,"Amount of active substance in the moist tissue, Mean value","[1]; systemic application (intravenous), after 30 minutes, Cornea",8.1549E−06 mg of moxaverine/g of moist tissue
same,"Amount of active substance in the moist tissue, Mean value",[1]; [7],2.5186E−04 mg of moxaverine/g of moist tissue
same,Amount of active substance in the moist tissue,[1]; [7],2.2898E−04 mg of moxaverine/g of moist tissue and 2.7473E−04 mg of moxaverine/g of moist tissue
same,"Amount of active substance in the moist tissue, Mean value",[1]; [8],1.2813E−06 mg of moxaverine/g of moist tissue
same,Amount of active substance in the moist tissue,[1]; [8],9.5659E−07 mg of moxaverine/g of moist tissue and 1.6061E−06 mg of moxaverine/g of moist tissue
same,"Amount of active substance in the moist tissue, Mean value",[1]; [9],3.4421E−05 mg of moxaverine/g of moist tissue
same,Amount of active substance in the moist tissue,[1]; [9],2.8375E−05 mg of moxaverine/g of moist tissue and 4.9032E−05 mg of moxaverine/g of moist tissue and 2.5855E−05 mg of moxaverine/g of moist tissue
same,"Amount of active substance in the moist tissue, Mean value",[1]; [10],1.3046E−04 mg of moxaverine/g of moist tissue
same,Amount of active substance in the moist tissue,[1]; [10],1.0666E−04 mg of moxaverine/g of moist tissue and 1.5425E−04 mg of moxaverine/g of moist tissue
same,"Amount of active substance in the moist tissue, Mean value","[1]; systemic application (intravenous), after 30 minutes, Sclera",3.3698E−05 mg of moxaverine/g of moist tissue
same,"Amount of active substance in the moist tissue, Mean value",[1]; [11],2.0811E−09 mg of moxaverine/g of moist tissue
same,Amount of active substance in the moist tissue,[1]; [11],2.6534E−09 mg of moxaverine/g of moist tissue and 1.5088E−09 mg of moxaverine/g of moist tissue
same,"Amount of active substance in the moist tissue, Mean value",[1]; [12],1.9944E−09 mg of moxaverine/g of moist tissue
same,Amount of active substance in the moist tissue,[1]; [12],2.3412E−09 mg of moxaverine/g of moist tissue and 1.8210E−09 mg of moxaverine/g of moist tissue
same,"Amount of active substance in the moist tissue, Mean value",[1]; [13],2.2936E−05 mg of moxaverine/g of moist tissue
same,Amount of active substance in the moist tissue,[1]; [13],2.7539E−05 mg of moxaverine/g of moist tissue and 1.5261E−05 mg of moxaverine/g of moist tissue and 2.6009E−05 mg of moxaverine/g of moist tissue
same,"Amount of active substance in the moist tissue, Mean value","[1]; systemic application (intravenous), after 120 minutes, Cornea",7.6083E−06 mg of moxaverine/g of moist tissue
same,"Amount of active substance in the moist tissue, Mean value",[1]; [14],1.5907E−04 mg of moxaverine/g of moist tissue
same,Amount of active substance in the moist tissue,[1]; [14],1.2211E−04 mg of moxaverine/g of moist tissue and 1.6708E−04 mg of moxaverine/g of moist tissue and 1.8802E−04 mg of moxaverine/g of moist tissue
same,"Amount of active substance in the moist tissue, Mean value",[1]; [15],1.5477E−06 mg of moxaverine/g of moist tissue
same,Amount of active substance in the moist tissue,[1]; [15],1.3706E−06 mg of moxaverine/g of moist tissue and 2.0870E−06 mg of moxaverine/g of moist tissue and 1.1854E−06 mg of moxaverine/g of moist tissue
same,"Amount of active substance in the moist tissue, Mean value",[1]; [16],2.2620E−05 mg of moxaverine/g of moist tissue
same,Amount of active substance in the moist tissue,[1]; [16],2.4420E−05 mg of moxaverine/g of moist tissue and 2.1190E−05 mg of moxaverine/g of moist tissue and 2.2250E−05 mg of moxaverine/g of moist tissue
same,"Amount of active substance in the moist tissue, Mean value",[1]; [17],7.7330E−05 mg of moxaverine/g of moist tissue
same,Amount of active substance in the moist tissue,[1]; [17],9.5067E−05 mg of moxaverine/g of moist tissue and 8.3068E−05 mg of moxaverine/g of moist tissue and 5.3855E−05 mg of moxaverine/g of moist tissue
same,"Amount of active substance in the moist tissue, Mean value",[1]; [18],1.3993E−05 mg of moxaverine/g of moist tissue
same,Amount of active substance in the moist tissue,[1]; [18],1.4230E−05 mg of moxaverine/g of moist tissue and 1.1476E−05 mg of moxaverine/g of moist tissue and 1.6272E−05 mg of moxaverine/g of moist tissue
same,"Amount of active substance in the moist tissue, Mean value",[1]; [19],1.2851E−09 mg of moxaverine/g of moist tissue
same,Amount of active substance in the moist tissue,[1]; [19],1.5608E−09 mg of moxaverine/g of moist tissue and 9.6772E−10 mg of moxaverine/g of moist tissue and 1.3267E−09 mg of moxaverine/g of moist tissue
same,Absorption by the eye after topical application to the surface,[1]; topical application,very well absorbed by the eye
same,Factor of increase of concentration in the iris and the ciliary process from 30 minutes to 120 minutes,[1]; topical application,~2
same,Factor of increase of concentration in the retina from 30 to 120 minutes,[1]; topical application,1.4
CCc1cc2cc(OC)c(OC)cc2c(Cc2ccccc2)n1 [moxaverine hydrochloride],"Eye reaction: changes to the iris, clouding of the cornea",albino rabbits,No changes to the iris or clouding of the cornea were observed
same,"Eye reaction: swelling of the lids, reddening of the conjunctiva",albino rabbits,No rabbit exhibited swelling of the lids or any reddening of the conjunctiva
